# According to a melting point compilation (Tetko et al.; mined from patent text by program, amines drawn as free bases though some values may be those of a salt):
row,Compound,melting point
1,COc1cc(C=C2NC(=O)NC2=O)cc(OC)c1,285 to 287 °C
2,C=CCc1cn(C(c2ccccc2)(c2ccccc2)c2ccccc2)c(F)n1,136 to 138 °C
3,C#CCNC1=Nc2c(c(C)nn2C)C(c2ccccc2)=NC1,193 to 195 °C
4,COCc1c[nH]c(-c2ccc(O)cc2)n1,191 to 192 °C
5,Cc1oc(-c2ccco2)nc1COc1ccc(COc2nn(-c3ccccc3)cc2C=O)cc1,148 to 149 °C
6,Cc1cc(OCC(=O)c2ccc(C(C)C)cc2)cc(C)c1C,96 to 98 °C
7,CC(=O)Nc1ccc(C=O)c(C)c1C#N,170 to 173 °C
8,CCOC(=O)C(=CNc1cnc2ccccc2n1)c1ccccc1,193 to 194 °C
9,CC(C)(NCCCn1ccnc1)c1ccc(-c2ccc(O)cc2)cc1,178 to 180 °C
10,COc1cc2c(cc1OC)CN(c1c(C)c(C)c3c(c1C)C(c1ccccc1)C(C)(C)O3)C2 (centres undefined),154 to 157 °C
11,O=C(c1ccccc1Cl)c1ccccc1I,62 to 64 °C
12,O=C(c1cc(C(F)(F)F)ccc1Cl)c1cc(C(F)(F)F)ccc1Cl,70 to 72 °C
13,Cn1cnc2nc(C=Cc3ccc(Cl)cc3)nn2c1=S,> 300 °C
14,Brc1csc(N2CCCCC2)n1,66 °C
15,Clc1ccc(OCc2ccccc2)c(OCC2CO2)c1Cl (centres undefined),59 to 61 °C
16,Cc1[nH]c(=O)ccc1C(=O)c1ccc(O)cc1,280 to 282 °C
17,CCOC(=O)Cc1nc2ccccc2n1-c1ccccc1,87 to 89 °C
18,O=C(O)Cc1cccc2c(-c3ccc(Br)cc3)nccc12,230 to 232 °C
19,CON1C(C)(C)CC(O)CC1(C)C,92 to 93 °C
20,O=C1N(Cc2nnc(-c3ccccc3)o2)c2ccccc2C12COc1cc3c(cc12)OCO3 (centres undefined),151 to 153 °C
21,COC1(c2cc(F)cc(Sc3ccc(Cc4ccc(F)cc4)cc3)c2)CCOCC1,62 to 64 °C

row,Compound,melting point
1,CC1CC(=O)NN=C1c1ccc2c(c1)C(C)(C)CC(=O)N2C (centres undefined),238 to 241 °C
2,CN=C(NC)Nc1ccccc1-c1ccccc1,101 to 102 °C
3,CCCCCn1c2ccccc2c2cc(C(=O)NCC(C)(C)C)ncc21,91 to 92 °C
4,CCC(=NO)c1ccccc1O,88 to 90 °C
5,CCOC(OCC)c1nc(N)nc(N)c1-c1ccc(Cl)cc1Cl,225 °C
6,CS(=O)(=O)c1nccc(-c2nc(=O)c3ccccc3s2)n1,270 °C
7,CCCOc1ncc(C#C[Si](C)(C)C)cc1-c1nc2c(CC)nn(CCN3CCOCC3)c2c(=O)[nH]1,132 to 134 °C
8,Cc1cc(Oc2ccc([N+](=O)[O-])c(Cl)c2)n[nH]1,91 to 93 °C
9,Cc1oc(C(C)(C)C)nc1CCOc1ccc(CC(OC(C)C)C(=O)O)c2sccc12 (centres undefined),159 to 160 °C
10,BrCc1nsc2nc3ccccc3n12,242 to 244 °C
11,CCN1C(=O)C(C)(C)C(=O)N(C)c2cc(CN(CCn3ccc4oc(C)cc4c3=O)Cc3ccccc3C#N)ccc21,157 to 159 °C
12,C[N+]([O-])=NNc1cccnc1,95 to 97 °C
13,CS(=O)c1ccc(C2=C(c3ccccc3)C(=O)C(C)(C)O2)cc1Cl (centres undefined),120 to 121 °C
14,Cc1cc(NC(=O)OC(C)(C)C)c([N+](=O)[O-])cc1C#Cc1ccccc1,161 to 164 °C
15,O=C1N(Cc2ccc(Cl)s2)c2cccc(Br)c2C12COc1cc3c(cc12)OCO3 (centres undefined),85 to 87 °C
16,CSc1ccc(CSc2cccc(C(=O)Nc3ccc(Cl)cn3)c2)cc1,159 to 161 °C
17,c1cc(CCC(Cn2ccnc2)Sc2ccc(N3CCCC3)cc2)ccn1 (centres undefined),148 to 149 °C
18,O=S1(=O)c2cccc3cccc(c23)N1CCCCN1CC=C(c2ccccc2)CC1,101 °C
19,CCCN(CCC)[C@H]1Cc2c[nH]c3ccc(-c4ccno4)c(c23)C1,126 to 127 °C
20,O=C1CCC2CCCCC2N1 (centres undefined),123 to 126 °C
21,CC(C)=CCOc1ccc(C(=O)C=Cc2ccc(C)cc2)c(O)c1,108 to 109 °C

row,Compound,melting point
1,Cc1ccccc1Sc1c(O)cc(-c2ccccc2)oc1=O,210 to 211 °C
2,CCCCCCCCCCCCCCCOCCSCCCO,44 to 47 °C
3,COC(=O)NNC(C)=S,99 to 100 °C
4,CCC(Nc1ccccc1C(=O)O)c1nccnc1OCc1ccccc1 (centres undefined),142 °C
5,CC(C)(C)c1nc2ccc(Cl)nn2n1,128 to 130 °C
6,O=C1NN=C(c2cccc(Br)c2)CC1O (centres undefined),158 to 161 °C
7,C[C@H](c1ccccc1)N1CC(=NO)C2(CCC2)C1=O,203 to 208 °C
8,Cc1ccc(-c2nc3sc4ccccc4n3c2CC(N)=O)s1,243 to 245 °C
9,O=C(Nc1nc2ccc(Cl)cc2s1)c1ccc2cccnc2c1O,> 320 °C
10,CC1(C)OC(=O)C(C=Nc2cncc(Br)c2)C(=O)O1,200 to 202 °C
11,N=C(NO)c1ccc(N)nc1,300 °C
12,CNc1cc(C(=O)Nc2c(C)cc(C(F)(C(F)(F)F)C(F)(F)F)cc2C)ccc1C#N,204 to 206 °C
13,CC(C(O)CCc1ccc(OC(F)(F)F)cc1)n1cncn1 (centres undefined),69 °C
14,CC1(O)CC(C)(C)c2ccc(Oc3ccc([N+](=O)[O-])cc3)cc2O1 (centres undefined),159 to 160 °C
15,CC(C(=O)O)c1cccc(OCCC(=O)O)c1 (centres undefined),144 to 146 °C
16,O=C(O)c1cn(-c2ccc(OC(F)(F)F)c(Cl)c2)cn1,230 to 231 °C
17,CCCCCCCCCCC=CCc1c[nH]c(C=O)c1,29 to 32 °C
18,CC(C)=CCC/C(C)=C/Cn1c(CO)nc2ccccc21,120 to 123 °C
19,Cn1ncc2c(c1=O)S(=O)(=O)CCNC2Cc1ccccc1 (centres undefined),288 to 290 °C

# The remaining lines, values ahead:
row,melting point,Compound
1,133 to 134 °C,COC(=O)CCn1c(=O)n(CCN2CCN(c3ccccc3)CC2)c(=O)c2cscc21
2,94 to 96 °C,COC(=O)c1ccccc1NC(=O)CN1CCNCC1
3,254 to 256 °C,O=C1CCC(N2Cc3c(CNC(=O)c4ccccn4)cccc3C2=O)C(=O)N1 (centres undefined)
4,124 to 126 °C,CCCCCS(=O)(=O)NC(=O)OCc1ccc(OCCCC)cc1Oc1ncc(C(F)(F)F)cc1Cl
5,220 °C,Nc1nc2ccc(S(=O)(=O)n3c(CCCC(=O)O)cc4cc(Cl)ccc43)cc2o1
6,85 to 88 °C,Cc1ccc(N2CCN(C(=O)NCCN(C)C)CC2)cc1
7,209 to 214 °C,CC1CC(C)CN(Cc2ccc(NC(=O)C#Cc3ccc(-c4ccc(Cl)cc4)cc3)cc2)C1 (centres undefined)
8,98 to 100 °C,CCCOCCOc1ccc(-c2ccc3c(c2)C=C(C(=O)O)CCN3CCCOCC)cc1
9,143 to 144 °C,COC(=O)C1Cc2c([nH]c3ccccc23)C(C)N1Cc1ccccc1 (centres undefined)
10,147 to 148 °C,CCCCn1c(=O)c(C(=O)OCC)c(O)c2ccccc21
11,200 to 203 °C,NS(=O)(=O)c1cc2cc(OCC(=O)O)ccc2s1
12,193 to 195 °C,COC(=O)Cn1c(C(=O)Nc2nc(-c3cc(OC)c(Cl)cc3OC)c(CCC3CCCCC3)s2)cc2cc(C)cc(C)c21
13,139 to 140 °C,COc1ccc(C(Cc2cc(Cl)nc(Cl)c2)=NO)cc1OC1CCCC1
14,178 °C,Cc1cc(N2CCN(C)CC2)n2nc(OCCO)c(S(=O)(=O)c3ccccc3)c2n1
15,116 °C,CC(C)(C)OC(=O)N[C@H]1CC[C@H](CCOS(C)(=O)=O)CC1
16,125 to 126 °C,COCCc1nc2c(N)nc3ccccc3c2n1CCC(=O)N1CCOCC1
17,98 to 99 °C,COC(=O)c1c(C)[nH]c(C)c1C1=CC(=O)c2cccc(O)c2C1=O
18,141 to 143 °C,COC(=O)[C@H](Cc1ccc(CC(=O)O)cc1)NC(=O)OC(C)(C)C
19,149 to 155 °C,CCCC12CCC3=C(CCc4cc(O)ccc43)C1=CCC2=O (centres undefined)
20,93 to 96 °C,CC(C)=CCN(CCC12CC3CC(CC(C3)C1)C2)C(=O)NCCCc1ccncc1
21,257 °C,Cc1ccc(S(=O)(=O)CC(=O)NN=C2C(=O)Nc3ccc(I)cc32)cc1
22,160 to 162 °C,O=C(c1ccccc1)c1ccc2nc(-c3c[nH]c(C(=O)N4CCCC4)c3)[nH]c2c1

row,melting point,Compound
1,163 to 165 °C,COc1cc2c(cc1O)C(Cc1c(OC)cccc1[N+](=O)[O-])N(C)CC2 (centres undefined)
2,174 to 177 °C,CCOC(=O)c1c(O)c2cnc(N3CCCC3)nc2n(C)c1=O
3,140 to 141 °C,CNS(=O)(=O)c1ccc(OC)c(C(=O)NCC2CCCN2CC2=CCCCC2)c1 (centres undefined)
4,58 to 62 °C,O=S(=O)(NCCCl)c1ccccc1
5,215 to 217 °C,O=C1CCC(N2Cc3c(OCc4ccc(CN5CCN(C(=O)C6CCCCC6)CC5)cc4)cccc3C2=O)C(=O)N1 (centres undefined)
6,173 to 179 °C,COC(=O)c1ccccc1S(=O)(=O)NC(=O)Nc1nc(C)cc(OC)n1
7,190 to 193 °C,Cc1cccc2c1C=C(C(=O)O)C2C (centres undefined)
8,125 to 126 °C,COc1ccc(C(=O)c2ccc(Br)cc2)c(F)c1
9,156 to 158 °C,CN(C(=O)c1ccc(Cl)cc1)[C@@H]1CCN(C(=O)Nc2ccc(F)nc2)C[C@H]1c1ccc(Cl)c(Cl)c1
10,185 to 186 °C,CCC(=O)NC[C@H]1CN(c2ccc3c(c2)CCCc2cnoc2-3)C(=O)O1
11,155 to 156 °C,Cc1ccc(S(=O)(=O)N2CCc3ccccc3C(Oc3ccccc3)C2)cc1 (centres undefined)
12,185 to 190 °C,COc1cc2[nH]cc(C(=O)C(Cl)(Cl)Cl)c2cc1Br
13,231 °C,CN(CCO)S(=O)(=O)c1cc(NC(=O)c2cnn3c(C(F)F)cc(-c4ccc(C(F)(F)F)cc4)nc23)c(Cl)s1
14,213 to 214 °C,COc1nc(NC(=O)NS(=O)(=O)c2ccccc2OC(F)F)nc(NC(C)(C)C)n1
15,118 to 120 °C,O=C1CCCN1S(=O)(=O)c1ccc2ccccc2c1
16,95 to 96 °C,CC(C)(C)OC(=O)N1CCC[C@H](O)[C@@H]1c1ccc(Cl)cc1 (relative stereo)
17,166 to 168 °C,COc1cc(CN2CCN(C(=O)c3ccc4c(c3)C(=O)c3ccccc3-4)CC2)cc(OC)c1OC
18,104 to 108 °C,CN1CCC(CO)(OCc2ccccc2F)CC1
19,144 to 145 °C,Cc1c(C(=O)NC(C)(C)CO)cccc1[N+](=O)[O-]
20,210 °C,CCCC(=O)Nc1n[nH]c2cc(-c3ccc(CC)cc3)ccc12
21,196 to 198 °C,CCCNC(Nc1cc(C(F)(F)F)cc(C(F)(F)F)c1)=C(C#N)S(=O)(=O)c1ccc(Cl)cc1
